According to patent publication US20240124466A1, “COMPOUNDS AND USE THEREOF FOR TREATMENT OF NEURODEGENERATIVE, DEGENERATIVE AND METABOLIC DISORDERS” (VOVA IDA THERAPEUTICS, INC., priority 2020, published 2024):

Test system: PK1 neuroblastoma cells exposed to TPrP
Assay: cells
Conditions: Neuroblastoma cell, 96 h, read-out: TPrP EC50

| Compound | EC50 [nM] |
| --- | --- |
| Cc1ccc(-c2nnc(-c3ccccc3)[nH]2)cc1S(=O)(=O)N1CCC2(CCCO2)CC1 [SR-32925, 8-((2-Methyl-5-(5-phenyl-4H-1,2,4-triazol-3-yl)phenyl)sulfonyl)-1-oxa-8-azaspiro[4.5]decane] | > 1500 |
| Cc1ccc(-c2ccnc(Cl)c2)cc1S(=O)(=O)N1CCN(CCCO)CC1 [SR-35129, 3-(4-((5-(2-Chloropyridin-4-yl)-2-methylphenyl)sulfonyl)piperazin-1-yl)propan-1-ol] | > 1500 |
| Cc1ccc(-c2c[nH]cc2-c2ccccc2)cc1S(=O)(=O)N1CCOCC1 [SR-29285, 4-((2-Methyl-5-(4-phenyl-1H-pyrrol-3-yl)phenyl)sulfonyl)morpholine] | > 1200 |
| Cc1ccc(-c2ccnc(Cl)c2)cc1S(=O)(=O)N1CCN(CC(F)F)CC1 [SR-35124, 1-((5-(2-Chloropyridin-4-yl)-2-methylphenyl)sulfonyl)-4-(2,2-difluoroethyl) piperazine] | > 1500 |
| Cc1ccc(-c2cnn(C)c2)cc1S(=O)(=O)N1CCOCC1 [SR-24578] | 100 |
| Cc1ccc(-c2nnc(-c3ccc(F)cc3)[nH]2)cc1S(=O)(=O)N1CCOCC1 [SR-27964, 4-((5-(5-(4-Fluorophenyl)-4H-1,2,4-triazol-3-yl)-2-methylphenyl)sulfonyl) morpholine] | 40 |
| Cc1ccc(-c2nnc(-c3ccccc3)[nH]2)cc1S(=O)(=O)N1CCN(CCc2ccncc2)CC1 [SR-33364, 1-((2-Methyl-5-(5-phenyl-4H-1,2,4-triazol-3-yl)phenyl)sulfonyl)-4-(2-(pyridin-4-yl)ethyl)piperazine] | 5 |
| C=CCN1C[C@H](C)N(S(=O)(=O)c2cc(-c3ccnc(Cl)c3)ccc2C)C[C@H]1C (relative stereo) [SR-35465, (trans)-1-allyl-4-((5-(2-chloropyridin-4-yl)-2-methylphenyl)sulfonyl)-2,5-dimethylpiperazine] | > 1500 |
| O=S(=O)(c1cc(-c2nnc(-c3ccccc3)[nH]2)ccc1Cl)N1CCOCC1 [SR-26525, 4-((2-Chloro-5-(5-phenyl-4H-1,2,4-triazol-3-yl)phenyl)sulfonyl)morpholine] | 100 |
| Cc1ccc(-c2nnc(-c3ccccc3)[nH]2)cc1C(=O)N1CCOCC1 [SR-32044, (2-Methyl-5-(5-phenyl-4H-1,2,4-triazol-3-yl)phenyl)(morpholino)methanone] | ~1500 |
| O=S(=O)(c1cc(-c2nnc(-c3ccccc3)[nH]2)ccc1OC(F)(F)F)N1CCOCC1 [SR-31545, 4-((5-(5-Phenyl-4H-1,2,4-triazol-3-yl)-2-(trifluoromethoxy)phenyl)sulfonyl) morpholine] | > 1500 |
| Cc1ccc(-c2ccnc(N3CCOCC3)c2)cc1S(=O)(=O)N1CCOCC1 [SR-29224, 4-(4-(4-Methyl-3-(morpholinosulfonyl)phenyl)pyridin-2-yl)morpholine] | 6 |
| Cc1ccc(-c2ccncc2)cc1S(=O)(=O)N1CCOCC1 [SR-24583] | 100 |
| Cc1ccc(-c2ncc(-c3ccccc3)[nH]2)cc1S(=O)(=O)N1CCOCC1 [SR-28804, 4-((2-Methyl-5-(5-phenyl-1H-imidazol-2-yl)phenyl)sulfonyl)morpholine] | 400 |
| Cc1ccc(-c2nnc(C)c3ccccc23)cc1S(=O)(=O)N1CCOCC1 [SR-26424, 4-((2-Methyl-5-(4-methylphthalazin-1-yl)phenyl)sulfonyl)morpholine] | > 320 |
| Cc1ccc(-c2cnn(CCN3CCOCC3)c2)cc1S(=O)(=O)N1CCOCC1 [SR-24581] | 100 |
| COc1ccc(-c2nnc(-c3ccccc3)[nH]2)cc1S(=O)(=O)N1CCOCC1 [SR-26624, 4-((2-Methoxy-5-(5-phenyl-4H-1,2,4-triazol-3-yl)phenyl)sulfonyl) morpholine] | 260 |
| Cc1ccc(-c2ccnc(-c3ccc(F)cc3)c2)cc1S(=O)(=O)N1CCOCC1 [SR-28924, 4-((5-(2-(4-Fluorophenyl)pyridin-4-yl)-2-methylphenyl)sulfonyl)morpholine] | 40 |
| Cc1ccc(-c2coc(-c3ccccc3)c2)cc1S(=O)(=O)N1CCOCC1 [SR-29044, 4-((2-Methyl-5-(5-phenylfuran-3-yl)phenyl)sulfonyl)morpholine] | > 1200 |
| Cc1ccc(-c2nnc(-c3ccccc3)[nH]2)cc1S(=O)(=O)N1CCOCC1C (centres unmarked) [SR-32286, 3-Methyl-4-((2-methyl-5-(5-phenyl-4H-1,2,4-triazol-3-yl)phenyl)sulfonyl) morpholine] | 110 |
| C#CCCC(=O)CCn1cc(-c2ccc(C)c(S(=O)(=O)N3CCN(CCc4ccncc4)CC3)c2)cn1 [SR-35186, 1-(4-(4-Methyl-3-((4-(2-(pyridin-4-yl)ethyl)piperazin-1-yl)sulfonyl)phenyl)-1H-pyrazol-1-yl)hept-6-yn-3-one] | < 5 |
| COCCN1CCN(S(=O)(=O)c2cc(-c3nnc(-c4ccccc4)[nH]3)ccc2C)CC1 [SR-34533, 1-(2-Methoxyethyl)-4-((2-methyl-5-(5-phenyl-4H-1,2,4-triazol-3-yl)phenyl)sulfonyl)piperazine] | > 1500 |

| Compound | EC50 [nM] |
| --- | --- |
| Cc1ccc(-c2nnc(-c3ccccc3)[nH]2)cc1S(=O)(=O)N1CCN(CCNC(=O)OC(C)(C)C)CC1 [SR-34024, tert-Butyl (2-(4-((2-methyl-5-(5-phenyl-4H-1,2,4-triazol-3-yl)phenyl)sulfonyl)piperazin-1-yl)ethyl)carbamate] | ~1500 |
| CC(=O)NC1CCN(CCn2cc(-c3ccc(C)c(S(=O)(=O)N4CCOCC4)c3)cn2)CC1 [SR-25864, N-(1-(2-(4-(4-methyl-3-(morpholinosulfonyl)phenyl)-1H-pyrazol-1-yl)ethyl)piperidin-4-yl)acetamide] | 120 |
| Cc1ccc(-c2cnn(Cc3ccccc3)c2)cc1S(=O)(=O)N1CCOCC1 [SR-28764, 4-((5-(1-Benzyl-1H-pyrazol-4-yl)-2-methylphenyl)sulfonyl)morpholine] | 150 |
| Cc1ccc(-c2nnc(-c3ccccc3)[nH]2)cc1S(=O)(=O)NCc1cccnc1 [SR-31584, 2-Methyl-5-(5-phenyl-4H-1,2,4-triazol-3-yl)-N-(pyridin-3-ylmethyl)benzene sulfonamide] | 90 |
| Cc1ccc(-c2cn(-c3ccccc3)nn2)cc1S(=O)(=O)N1CCOCC1 [SR-30084, 4-((2-Methyl-5-(1-phenyl-1H-1,2,3-triazol-4-yl)phenyl)sulfonyl)morpholine] | 30 |
| Cc1ccc(-c2nnc(-c3ccc(F)c(F)c3)[nH]2)cc1S(=O)(=O)N1CCOCC1 [SR-27984, 4-((5-(5-(3,4-Difluorophenyl)-4H-1,2,4-triazol-3-yl)-2-methylphenyl)sulfonyl) morpholine] | 20 |
| Cc1ccc(-c2cnn(-c3ccccc3)c2)cc1S(=O)(=O)N1CCOCC1 [SR-28925, 4-((2-Methyl-5-(1-phenyl-1H-pyrazol-4-yl)phenyl)sulfonyl)morpholine] | 20 |
| O=S(=O)(c1ccc(-c2nnc(-c3ccccc3)[nH]2)cc1Cl)N1CCOCC1 [SR-26324, 4-((2-Chloro-4-(5-phenyl-4H-1,2,4-triazol-3-yl)phenyl)sulfonyl)morpholine] | > 320 |
| Cc1ccc(-c2nnc(-c3ccccc3)n2C)cc1S(=O)(=O)N1CCOCC1 [SR-28864, 4-((2-Methyl-5-(4-methyl-5-phenyl-4H-1,2,4-triazol-3-yl)phenyl)sulfonyl) morpholine] | > 1200 |
| Cc1ccc(-c2nnc(-c3ccccc3)[nH]2)cc1S(=O)(=O)N1CCC(O)(Cc2ccccc2)CC1 [SR-33024, 4-Benzyl-1-((2-methyl-5-(5-phenyl-4H-1,2,4-triazol-3-yl)phenyl)sulfonyl) piperidin-4-ol] | > 1500 |
| Cc1ccc(-c2nnc(-c3ccccc3)s2)cc1S(=O)(=O)N1CCOCC1 [SR-27524, 4-((2-Methyl-5-(5-phenyl-1,3,4-thiadiazol-2-yl)phenyl)sulfonyl)morpholine] | 180 |
| Cc1ccc(-c2nc3ccccn3n2)cc1S(=O)(=O)N1CCOCC1 [SR-26524, 4-((5-([1,2,4]Triazolo[1,5-a]pyridin-2-yl)-2-methylphenyl)sulfonyl) morpholine] | 50 |
| Cc1ccc(-c2csc(-c3ccccc3)c2)cc1S(=O)(=O)N1CCOCC1 [SR-29184, 4-((2-Methyl-5-(5-phenylthiophen-3-yl)phenyl)sulfonyl)morpholine] | > 1200 |
| Cc1ccc(-c2nnc(-c3ccccc3)o2)cc1S(=O)(=O)N1CCOCC1 [SR-27558, 4-((2-Methyl-5-(5-phenyl-1,3,4-oxadiazol-2-yl)phenyl)sulfonyl)morpholine] | 140 |
| Cc1ccc(-c2nnc(-c3ccncc3)[nH]2)cc1S(=O)(=O)N1CCOCC1 [SR-28224, 4-((2-Methyl-5-(5-(pyridin-4-yl)-4H-1,2,4-triazol-3-yl)phenyl)sulfonyl) morpholine] | 18 |
| Cc1cc(C)c(S(=O)(=O)N2CCN(CCO)CC2)cc1-c1ccnc(Cl)c1 [SR-34951, 2-(4-((5-(2-Chloropyridin-4-yl)-2,4-dimethylphenyl)sulfonyl)piperazin-1-yl)ethan-1-ol] | 90 |
| Cc1ccc(-c2nnc(C3CCCCC3)[nH]2)cc1S(=O)(=O)N1CCOCC1 [SR-28565, 4-((5-(5-Cyclohexyl-4H-1,2,4-triazol-3-yl)-2-methylphenyl)sulfonyl)morpholine] | 150 |
| Cc1ccc(-c2c(C)nn(C)c2C)cc1S(=O)(=O)N1CCOCC1 [SR-25584, 4-((2-Methyl-5-(1,3,5-trimethyl-1H-pyrazol-4-yl)phenyl)sulfonyl)morpholine] | > 320 |
| CC(=O)N1CCN(CCn2cc(-c3ccc(C)c(S(=O)(=O)N4CCOCC4)c3)cn2)CC1 [SR-25484, 1-(4-(2-(4-(4-Methyl-3-(morpholinosulfonyl)phenyl)-1H-pyrazol-1-yl)ethyl)piperazin-1-yl)ethan-1-one] | 140 |
| CC(=O)N(C)CCN(C)c1cc(-c2ccc(C)c(S(=O)(=O)N3CCOCC3)c2)ccn1 [SR-25124, N-methyl-N-(2-(methyl(4-(4-methyl-3-(morpholinosulfonyl)phenyl)pyridin-2-yl)amino)ethyl)acetamide] | 240 |
| Cc1ccc(-c2ccnc(N3CCOCC3)c2)cc1S(=O)(=O)N1CC(O)C1 [SR-34464, 1-((2-Methyl-5-(2-morpholinopyridin-4-yl)phenyl)sulfonyl)azetidin-3-ol] | 300 |
| Cc1ccc(-c2ccnc(-c3ccccc3)c2)cc1S(=O)(=O)N1CCOCC1 [SR-28984, 4-((2-Methyl-5-(2-phenylpyridin-4-yl)phenyl)sulfonyl)morpholine] | 30 |
